In patent publication US20070142638A1, “Ornithine derivatives as prostaglandin e2 agonists or antagonists” (Astellas Pharma Inc., priority 2003, published 2007) one finds inhibition data, which are given here for one molecule.

For this assay, the target named is T1, prostanoid receptor subtype (human EP4) (Homo sapiens, UniProt P35408).
T1 construct: expressed in transfected cells; host or cells: COS-7 cells (membrane fraction)
Put plainly: Binding assay using membrane preparation with the expression of prostanoid receptor subtype. The settings on record: test compound at 1.0×10^−8 M (10 nM); competition with [^3H]-PGE2 10 nM; membrane fraction of COS-7 cells transfected with human EP4. How it is done: The radioactivity associated with the filter was measured by liquid scintillation counting.
The following buffer was used in all reactions.

The inhibition is how much of the control response was suppressed. High values mean a response far below the control, low ones a response near the control.

T1 sequence (P35408 whole entry): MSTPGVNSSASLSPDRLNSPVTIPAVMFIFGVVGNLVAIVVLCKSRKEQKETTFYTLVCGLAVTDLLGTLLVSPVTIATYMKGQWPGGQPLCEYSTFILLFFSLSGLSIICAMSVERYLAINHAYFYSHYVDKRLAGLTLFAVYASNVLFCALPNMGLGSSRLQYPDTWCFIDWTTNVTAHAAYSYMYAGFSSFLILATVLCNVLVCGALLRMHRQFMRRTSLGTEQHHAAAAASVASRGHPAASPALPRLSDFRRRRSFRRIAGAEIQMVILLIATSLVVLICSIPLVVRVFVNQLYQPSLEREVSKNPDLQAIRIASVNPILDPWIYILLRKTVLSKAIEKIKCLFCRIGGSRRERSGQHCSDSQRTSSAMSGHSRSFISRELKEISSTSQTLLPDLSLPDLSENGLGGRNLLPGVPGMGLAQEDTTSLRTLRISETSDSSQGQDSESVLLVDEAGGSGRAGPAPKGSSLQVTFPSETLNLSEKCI

With `O=C(O)CCCCCNC(=O)[C@H](CCCNC(=O)OCc1ccccc1)NC(=O)c1cc2ccccc2o1` [Example 23, Sodium 6-{(2S)-2-[(1-benzofuran-2-yl-carbonyl)-amino]-5-[benzyloxycarbonylamino]pentanoylamino}-hexanoate], the inhibition at 0.01 µM was at least 80%.
